These results are taken from ChEMBL document CHEMBL1811808, “A mechanism-based potent sirtuin inhibitor containing Nε-thiocarbamoyl-lysine (TuAcK)” (Bioorg Med Chem Lett, 2011).

The source made the active and inactive calls. The rule behind the calls is not given here. Square brackets hold non-standard residues; d marks the D form. Peptide text beside a SMILES is read from it. Asu = N[C@@H](CCCCCC(=O)O)C(=O)O

Assay [1] addresses T1, NAD-dependent protein deacetylase sirtuin-1 (Homo sapiens, UniProt Q96EB6).
T1 sequence (Q96EB6 whole entry): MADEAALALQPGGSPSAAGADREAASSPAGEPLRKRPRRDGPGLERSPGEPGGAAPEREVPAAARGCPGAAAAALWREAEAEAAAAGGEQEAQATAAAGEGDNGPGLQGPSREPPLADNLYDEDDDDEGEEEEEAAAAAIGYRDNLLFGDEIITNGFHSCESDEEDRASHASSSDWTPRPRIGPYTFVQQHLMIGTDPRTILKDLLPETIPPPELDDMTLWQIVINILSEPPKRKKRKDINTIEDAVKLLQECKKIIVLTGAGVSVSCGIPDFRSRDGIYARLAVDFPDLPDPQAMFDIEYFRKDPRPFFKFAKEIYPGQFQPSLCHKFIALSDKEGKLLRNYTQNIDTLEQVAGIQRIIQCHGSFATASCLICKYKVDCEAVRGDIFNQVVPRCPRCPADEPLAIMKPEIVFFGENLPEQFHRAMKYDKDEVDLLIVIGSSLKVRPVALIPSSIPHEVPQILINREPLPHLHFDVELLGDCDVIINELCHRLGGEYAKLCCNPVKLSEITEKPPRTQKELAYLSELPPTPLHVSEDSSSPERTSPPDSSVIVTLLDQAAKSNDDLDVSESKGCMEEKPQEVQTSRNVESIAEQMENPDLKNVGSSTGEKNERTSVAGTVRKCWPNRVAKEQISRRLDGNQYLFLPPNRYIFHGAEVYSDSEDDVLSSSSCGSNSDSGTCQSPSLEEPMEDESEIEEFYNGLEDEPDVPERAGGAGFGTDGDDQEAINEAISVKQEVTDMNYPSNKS
In words: Inhibition of human GST-tagged SIRT1 using H2NHK-AcK-LM-COOH as substrate assessed as enzymatic deacetylation product formation after 5 mins by HPLC analysis.

In assay [2] the target is T2, NAD-dependent protein deacetylase sirtuin-1 (Homo sapiens) (UniProt Q96EB6).
T2 sequence (whole entry): T1 sequence (Q96EB6 whole entry)
In words: Inhibition of SIRT1 in human HCT116 cells expressing wild type p53 assessed as increase in p53 acetylation at K382 after 10 hr by Western blot analysis. The note with it: HCT-116.

Assay [3] addresses T2, NAD-dependent protein deacetylase sirtuin-1 (Homo sapiens). In words: Activity at SIRT1 assessed as formation of alkylamidate intermediate of compound at 0.6 mM after 1 min by MALDI-MS analysis in presence of NAD+.
The target in assay [4] is T3, NAD-dependent protein deacetylase sirtuin-2 (Homo sapiens, UniProt Q8IXJ6).
T3 sequence (Q8IXJ6 whole entry): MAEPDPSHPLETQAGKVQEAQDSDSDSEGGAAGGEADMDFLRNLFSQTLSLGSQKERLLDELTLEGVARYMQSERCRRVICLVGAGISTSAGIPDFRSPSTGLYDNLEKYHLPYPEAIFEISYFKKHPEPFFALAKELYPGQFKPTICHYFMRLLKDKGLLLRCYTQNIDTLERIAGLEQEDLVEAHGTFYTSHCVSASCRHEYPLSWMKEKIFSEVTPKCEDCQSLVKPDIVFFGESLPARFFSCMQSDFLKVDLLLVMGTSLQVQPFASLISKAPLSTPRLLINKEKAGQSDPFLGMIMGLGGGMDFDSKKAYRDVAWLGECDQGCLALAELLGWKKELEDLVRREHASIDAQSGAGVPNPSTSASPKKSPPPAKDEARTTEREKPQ
In words: Inhibition of human full length SIRT2 using H2N-MPSD-AcK-TIGG-COOH as substrate assessed as enzymatic deacetylation product formation after 60 mins by HPLC analysis.

Turning to `CC(=O)NCCC[C@H](NC(=O)[C@H](CCCCNC(N)=S)NC(=O)[C@H](CCCNC(C)=O)NC(C)=O)C(N)=O`, the IC50 in assay [1] was 89.5 µM. Besides, in assay [2], the inhibition entry is “Dose-dependent effect”. Further, the outcome in assay [3] was Active.
Turning to `CC(=O)NCCCC[C@H](NC(=O)[C@H](CCCCCC(N)=O)NC(=O)[C@H](CCCCNC(C)=O)NC(C)=O)C(N)=O` (Ac-Lys(Ac)-[Asu](NH2)-Lys(Ac)-NH2), the IC50 was determined as 290 µM in assay [1] and 190 µM in assay [4].
